From US20150152083A1, “Compounds and Compositions for Modulating EGFR Activity” (IRM LLC, A Delaware Limited Liability Company, priority 2012, published 2015)

Legend:
[1] = target: T1, EGFR(L858R/T790M) (Homo sapiens, UniProt P00533, L858R/T790M); test: EGFR target modulation in engineered NIH3T3 cell lines (phospho-EGFR AlphaLISA); format: cell-based; parameters: host or cells: NIH3T3; details: NIH3T3 cells expressing human EGFR L858R/T790M; 3 hours compound
Experimental: (§1) EGFR Target Modulation in Engineered NIH3T3 Cell Lines
(§2) NIH3T3 cell lines expressing human EGFR (WT, L858R, and L858RT790M) (obtained from Matthew Meyerson's Lab at DFCI) were maintained in 10% FBS/DMEM supplemented with 100 μg/ml Penicillin/Streptomycin (Hyclone #SV30010) and 2 μg/ml Puromycin. The cells were harvested with 0.05% Trypsin/EDTA (Hyclone #SH30236.01), re-suspended in 5% FBS/DMEM Pen/Strep without Puromycin and plated at 9,000 cells per well in 50 μl of media in a 384-well black plate with clear bottoms (Greiner #789068G). The cells were allowed to incubate overnight in a 37° C., 5% CO2 humidified tissue culture incubator. A 12-point test compound curve was prepared by serial diluting a 10 μM stock 1:3 in DMSO in a 384-well compound plate (Greiner #789201L). The serial diluted compounds were transferred to the plate containing cells by using a 50 nl Pin Head device (Perkin Elmer) and the cells were placed back in the incubator for 3 hours. Only the EGFR WT-expressing cells were induced with 50 ng/ml EGF (Preprotech #AF-100-15) for 5 minutes before lysis. The media was removed and cells were lysed in 25 μl of Lysis buffer containing protease and phosphatase inhibitors (1% Triton X-100, 20 mM Tris, pH 7.5, 1 mM EDTA, 1 mM EGTA, 150 mM NaCl, 1× complete cocktail inhibitor (Roche #11 697 498 001), 1× Phosphatase Inhibitor Cocktail Set II and Set III (Sigma #P5726 and #P0044)). The plates were shaken at 4° C. for 5 minutes with foil top at maximum speed. An aliquot of 5 μl from each well was transferred to ProxiPlate™ 384-well Plus plates (PE #6008289). The plates were sealed with a foil top and frozen at −80° C. and thawed when needed.
(§3) The frozen aliquots were thawed and briefly centrifuged. All antibodies and beads were diluted in 1× AlphaLISA HiBlock Buffer (PE #AL004C). Biotinylated anti-phospho-EGFR (Y1068) (Cell Signaling #4031) was incubated with the lysate for 1 hour at room temperature at 1 nM final concentration. Goat anti-total EGFR (R&D Systems #AF231) was added and allowed to equilibrate for 1 hour at room temperature at 1 nM final concentration. Then, 10 μl of mixed beads (AlphaScreen Streptavidin Donor Beads (PE #6760002S) and AlphaLISA anti-goat IgG Acceptor Beads (PE #AL107C)) was equilibrated for 1.5 hours before reading on EnVision plate reader using the built-in settings for AlphaScreen.
(§4) Cells untreated (L858R and L858RT790M) or EGF-induced (WT) were set to 100% maximum response. For a negative control, 10 μM HKI-272 was used to normalize data to 0% of maximum response. With these parameters, the IC50's for each compound in each cell line was calculated using non-linear curve fitting analysis.
Target sequence in this assay (P00533 25-1210 T790M/L858R): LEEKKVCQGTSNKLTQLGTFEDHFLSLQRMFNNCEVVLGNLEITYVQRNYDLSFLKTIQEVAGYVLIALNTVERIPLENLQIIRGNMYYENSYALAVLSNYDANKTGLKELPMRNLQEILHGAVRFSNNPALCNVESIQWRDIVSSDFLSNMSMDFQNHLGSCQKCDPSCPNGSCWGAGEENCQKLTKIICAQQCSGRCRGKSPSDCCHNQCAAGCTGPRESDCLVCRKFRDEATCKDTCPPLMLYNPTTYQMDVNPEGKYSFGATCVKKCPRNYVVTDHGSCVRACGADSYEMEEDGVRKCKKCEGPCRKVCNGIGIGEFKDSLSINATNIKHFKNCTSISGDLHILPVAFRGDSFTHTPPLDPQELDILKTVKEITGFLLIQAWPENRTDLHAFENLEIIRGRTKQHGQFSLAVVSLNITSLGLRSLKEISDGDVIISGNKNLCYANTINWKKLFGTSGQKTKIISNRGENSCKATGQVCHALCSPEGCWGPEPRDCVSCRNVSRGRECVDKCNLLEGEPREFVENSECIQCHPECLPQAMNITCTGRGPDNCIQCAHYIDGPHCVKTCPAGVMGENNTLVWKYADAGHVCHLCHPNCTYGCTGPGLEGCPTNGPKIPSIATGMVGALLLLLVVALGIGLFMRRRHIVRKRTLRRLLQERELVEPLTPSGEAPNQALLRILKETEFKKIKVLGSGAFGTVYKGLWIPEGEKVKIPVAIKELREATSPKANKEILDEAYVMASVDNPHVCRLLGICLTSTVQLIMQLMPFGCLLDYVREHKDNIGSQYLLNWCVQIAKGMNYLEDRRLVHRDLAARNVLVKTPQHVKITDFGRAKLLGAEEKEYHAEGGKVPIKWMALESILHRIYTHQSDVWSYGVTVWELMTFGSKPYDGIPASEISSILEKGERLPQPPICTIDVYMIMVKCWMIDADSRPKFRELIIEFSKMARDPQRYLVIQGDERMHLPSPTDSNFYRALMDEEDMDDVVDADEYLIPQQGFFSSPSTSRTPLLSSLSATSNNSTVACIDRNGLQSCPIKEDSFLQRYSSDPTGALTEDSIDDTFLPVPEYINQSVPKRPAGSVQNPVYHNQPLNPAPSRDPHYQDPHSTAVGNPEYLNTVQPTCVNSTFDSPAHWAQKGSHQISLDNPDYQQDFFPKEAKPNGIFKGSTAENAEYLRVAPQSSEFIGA

[2] = target: T2, EGFR (WT) (Homo sapiens, UniProt P00533); test: as above; format: cell-based; details: NIH3T3 cells expressing human EGFR WT; 3 hours compound; induced with 50 ng/ml EGF
T2 construct: host or cells: NIH3T3
Experimental: as §1, §2, §3, §4

[3] = target: T3, EGFR (L858R) (Homo sapiens, UniProt P00533, L858R); test: as above; format: cell-based; details: NIH3T3 cells expressing human EGFR L858R; 3 hours compound
T3 construct: host or cells: NIH3T3
Experimental: as §1, §2, §3, §4

[4] = target: T1, EGFR(L858R/T790M); test: EGFR biochemical assay (HTRF), IC50 determination; parameters: purchased from Carna (GST-a.a. 669-1210); purchased Carna; details: 10 μM ATP
Experimental: All EGFR biochemical assays were carried out by HTRF method. The EGFR(L858RT790M) enzyme were purchased from Carna (GST-a.a. 669-1210). The substrate peptide Biotin-TK-peptide was purchased from Cis-Bio. The reaction mixtures contained 1 μM peptide substrate, 10 μM ATP, and 0.036 nM EGFR(L858RT790M) in the reaction buffer (50 mM HEPES pH 7.1, 10 mM MgCl2, 0.01% BSA, 1 mM TCEP and 0.1 mM Na3VO4) at a final volume of 10 μL. All reactions were carried out at room temperature in white ProxiPlate™ 384-well Plus plates (PerkinElmer) and were quenched with 5 μL of 0.2 M EDTA at 60 min Five μL of the detection reagents (2.5 ng PT66K and 0.05 μg SAXL per well) were added, the plates were incubated at room temperature for 1 h and then read in EnVision reader. […] For no-preincubation condition, the compounds were added to the assay solution containing ATP and peptide, and the reaction was initiated by addition of enzyme. For pre-incubation conditions, the compounds were added to the assay solution containing enzyme and peptide, and pre-incubated at room temperature for desired period of time, then the reaction was initiated by addition of ATP.
Target sequence in this assay (P00533 669-1210 T790M/L858R): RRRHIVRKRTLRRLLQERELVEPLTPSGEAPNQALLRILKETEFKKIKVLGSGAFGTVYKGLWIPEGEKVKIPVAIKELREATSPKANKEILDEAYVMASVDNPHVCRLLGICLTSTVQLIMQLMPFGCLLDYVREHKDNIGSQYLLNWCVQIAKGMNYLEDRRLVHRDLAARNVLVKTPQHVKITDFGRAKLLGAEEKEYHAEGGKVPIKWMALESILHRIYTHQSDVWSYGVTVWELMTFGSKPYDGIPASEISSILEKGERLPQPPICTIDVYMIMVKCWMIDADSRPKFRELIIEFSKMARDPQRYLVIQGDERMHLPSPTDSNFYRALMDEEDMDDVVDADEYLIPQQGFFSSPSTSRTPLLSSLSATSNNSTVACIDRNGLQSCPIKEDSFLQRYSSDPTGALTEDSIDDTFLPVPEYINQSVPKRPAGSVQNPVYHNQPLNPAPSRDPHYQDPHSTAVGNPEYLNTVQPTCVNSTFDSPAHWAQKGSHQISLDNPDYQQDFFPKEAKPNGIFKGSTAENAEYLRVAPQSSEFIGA

[5] = EGFR (L858R/T790M) IC50 (μM) 90 min pre-incubation, 90 min pre-incubation
[6] = no pre-incubation, read-out: EGFR (L858R/T790M) IC50 (μM) No pre-incubation

T3 sequence (P00533 25-1210 L858R): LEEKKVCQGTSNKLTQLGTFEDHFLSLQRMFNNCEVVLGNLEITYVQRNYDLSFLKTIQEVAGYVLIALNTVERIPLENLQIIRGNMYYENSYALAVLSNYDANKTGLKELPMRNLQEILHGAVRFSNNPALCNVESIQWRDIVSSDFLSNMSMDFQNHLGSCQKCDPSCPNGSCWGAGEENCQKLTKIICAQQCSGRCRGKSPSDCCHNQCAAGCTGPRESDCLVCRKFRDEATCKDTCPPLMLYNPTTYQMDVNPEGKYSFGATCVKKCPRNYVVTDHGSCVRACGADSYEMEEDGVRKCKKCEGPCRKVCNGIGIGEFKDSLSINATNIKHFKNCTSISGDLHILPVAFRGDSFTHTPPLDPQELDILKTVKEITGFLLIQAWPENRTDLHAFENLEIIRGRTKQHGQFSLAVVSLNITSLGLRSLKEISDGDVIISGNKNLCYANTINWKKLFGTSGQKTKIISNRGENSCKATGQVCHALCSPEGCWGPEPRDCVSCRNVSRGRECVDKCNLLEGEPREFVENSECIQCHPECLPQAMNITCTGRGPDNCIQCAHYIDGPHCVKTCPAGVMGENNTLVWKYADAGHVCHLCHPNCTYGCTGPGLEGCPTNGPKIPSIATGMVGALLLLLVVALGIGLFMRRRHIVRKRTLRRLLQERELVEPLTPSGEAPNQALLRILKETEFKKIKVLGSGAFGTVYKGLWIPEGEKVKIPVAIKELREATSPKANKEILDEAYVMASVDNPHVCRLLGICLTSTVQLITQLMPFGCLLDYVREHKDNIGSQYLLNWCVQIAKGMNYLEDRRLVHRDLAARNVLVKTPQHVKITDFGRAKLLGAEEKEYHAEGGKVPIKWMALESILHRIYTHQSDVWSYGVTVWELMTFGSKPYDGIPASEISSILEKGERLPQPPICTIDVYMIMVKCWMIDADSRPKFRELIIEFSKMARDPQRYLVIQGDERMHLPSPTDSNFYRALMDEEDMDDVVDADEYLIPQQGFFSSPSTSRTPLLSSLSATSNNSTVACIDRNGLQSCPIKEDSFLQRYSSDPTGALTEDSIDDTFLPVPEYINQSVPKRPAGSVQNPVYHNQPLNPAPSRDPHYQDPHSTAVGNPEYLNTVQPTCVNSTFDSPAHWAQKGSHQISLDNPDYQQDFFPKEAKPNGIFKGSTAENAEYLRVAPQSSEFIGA
T2 sequence (P00533 25-1210): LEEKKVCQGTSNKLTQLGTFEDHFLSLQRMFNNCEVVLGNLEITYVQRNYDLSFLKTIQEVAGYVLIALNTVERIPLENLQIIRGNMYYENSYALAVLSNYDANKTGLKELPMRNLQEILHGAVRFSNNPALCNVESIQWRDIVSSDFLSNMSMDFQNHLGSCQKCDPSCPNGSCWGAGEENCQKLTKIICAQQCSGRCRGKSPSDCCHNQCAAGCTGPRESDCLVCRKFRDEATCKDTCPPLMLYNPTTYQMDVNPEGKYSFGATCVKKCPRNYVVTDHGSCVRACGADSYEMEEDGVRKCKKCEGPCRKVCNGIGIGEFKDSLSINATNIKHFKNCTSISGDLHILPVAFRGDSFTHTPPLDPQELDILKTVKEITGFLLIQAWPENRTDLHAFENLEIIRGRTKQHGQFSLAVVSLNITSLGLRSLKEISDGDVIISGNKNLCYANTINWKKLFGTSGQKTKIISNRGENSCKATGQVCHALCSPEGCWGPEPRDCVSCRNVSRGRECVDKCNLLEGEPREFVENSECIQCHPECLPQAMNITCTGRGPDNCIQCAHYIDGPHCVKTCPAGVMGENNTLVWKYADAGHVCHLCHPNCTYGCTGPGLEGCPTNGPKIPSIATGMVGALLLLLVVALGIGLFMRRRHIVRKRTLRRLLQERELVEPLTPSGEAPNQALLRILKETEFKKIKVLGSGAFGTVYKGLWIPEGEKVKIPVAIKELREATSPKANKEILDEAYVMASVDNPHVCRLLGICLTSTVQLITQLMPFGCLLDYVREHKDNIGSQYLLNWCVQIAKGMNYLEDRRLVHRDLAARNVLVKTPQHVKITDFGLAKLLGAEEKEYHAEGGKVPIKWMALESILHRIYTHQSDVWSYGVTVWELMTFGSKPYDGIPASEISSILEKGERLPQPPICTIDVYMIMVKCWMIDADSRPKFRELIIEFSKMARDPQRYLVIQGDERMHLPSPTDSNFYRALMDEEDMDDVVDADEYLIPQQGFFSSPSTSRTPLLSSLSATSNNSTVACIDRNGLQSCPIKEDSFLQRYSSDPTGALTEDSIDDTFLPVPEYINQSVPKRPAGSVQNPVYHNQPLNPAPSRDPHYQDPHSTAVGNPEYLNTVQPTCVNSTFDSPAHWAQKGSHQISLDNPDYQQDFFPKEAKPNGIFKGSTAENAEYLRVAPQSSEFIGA

| Structure (SMILES) | IC50 [1] [µM] | IC50 [2] [µM] | IC50 [3] [µM] | IC50 [4, 5] [µM] | IC50 [4, 6] [µM] |
| --- | --- | --- | --- | --- | --- |
| C=CC(=O)Nc1cccc(-n2c(NC(=O)c3cccc(C(F)(F)F)c3)nc3cc(C)ccc32)c1 [Example 2-9, N-{5-methyl-1-[3-(prop-2-enamido)phenyl]-1H-1,3-benzodiazol-2-yl}-3-(trifluoromethyl)benzamide] | 0.052 | > 10 | 0.55 | 0.006 | 0.049 |
| C=CC(=O)Nc1cccc(-n2c(NC(=O)c3cccc(C(F)(F)F)c3)nc3cc(COC)ccc32)c1 [Example 5-1, N-[5-(methoxymethyl)-1-[3-(prop-2-enamido)phenyl]-1H-1,3-benzodiazol-2-yl]-3-(trifluoromethyl)benzamide] | 0.02 | > 10 | 0.86 | < 0.001 | 0.022 |
| C=CC(=O)Nc1cccc(-n2c(NC(=O)c3cccc(F)c3)nc3cc(C)ccc32)c1 [Example 2-1, 3-fluoro-N-{5-methyl-1-[3-(prop-2-enamido)phenyl]-1H-1,3-benzodiazol-2-yl}benzamide] | 0.028 | > 10 | 0.33 | 0.003 | 0.023 |
| C=CC(=O)N(C)c1cccc(-n2c(NC(=O)c3cccc(C(F)(F)F)c3)nc3cc(C)ccc32)c1 [Example 2-10, N-{5-methyl-1-[3-(N-methylprop-2-enamido)phenyl]-1H-1,3-benzodiazol-2-yl}-3-(trifluoromethyl)benzamide] | 0.11 | > 8 | 0.66 | 0.003 | 0.085 |
| C=CC(=O)Nc1cccc(-n2c(NC(=O)c3ccc(Cl)c(Cl)c3)nc3cc(C)ccc32)c1 [Example 2-4, 3,4-dichloro-N-{5-methyl-1-[3-(prop-2-enamido)phenyl]-1H-1,3-benzodiazol-2-yl}benzamide] | 0.22 | > 10 | 0.33 | 0.023 | 0.27 |
| C=CC(=O)N[C@@H]1CCC[C@@H](n2c(NC(=O)c3cccc(C(F)(F)F)c3)nc3cc(C)ccc32)C1 (racemic) [Example 8-2, N-{5-methyl-1-[(1S,3S)-3-(prop-2-enamido)cyclohexyl]-1H-1,3-benzodiazol-2-yl}-3-(trifluoromethyl)benzamide] | 0.41 | > 10 | > 3.7 | 0.051 | 0.27 |
| C=CC(=O)Nc1cccc(-n2c(NC(=O)c3cccc(C(F)(F)F)c3)nc3cc(CO)ccc32)c1 [Example 3, N-(1-(3-acrylamidophenyl)-5-(hydroxymethyl)-1H-benzo[d]imidazol-2-yl)-3-(trifluoromethyl)benzamide] | 0.036 | > 10 | 0.45 | 0.003 | 0.028 |
| C=CC(=O)Nc1cccc(-n2c(NC(=O)c3cccc(Oc4ccccc4)c3)nc3cc(C)ccc32)c1 [Example 2-6, N-{5-methyl-1-[3-(prop-2-enamido)phenyl]-1H-1,3-benzodiazol-2-yl}-3-phenoxybenzamide] | 0.062 | > 10 | 0.27 | < 0.001 | 0.021 |
| C=CC(=O)Nc1cccc(-n2c(NC(=O)c3cccc(C(F)(F)F)c3)nc3cc(COCC)ccc32)c1 [Example 4, N-(1-(3-acrylamidophenyl)-5-(ethoxymethyl)-1H-benzo[d]imidazol-2-yl)-3-(trifluoromethyl)benzamide] | 0.1 | > 10 | 1.1 | 0.005 | 0.071 |
| C=CC(=O)N[C@H]1CCCC(n2c(NC(=O)c3cccc(C(F)(F)F)c3)nc3cccc(C)c32)C1 (mixture of isomers) [Example 6, trans-N-(1-(3-acrylamidocyclohexyl)-7-methyl-1H-benzo[d]imidazol-2-yl)-3-(trifluoromethyl)benzamide] | 0.14 | > 10 | 0.69 | 0.009 | 0.18 |
| C=CC(=O)N[C@@H]1CCC[C@H](n2c(NC(=O)c3cccc(C(F)(F)F)c3)nc3cccc(C)c32)C1 (racemic) [Example 7, cis-N-(1-(3-acrylamidocyclohexyl)-7-methyl-1H-benzo[d]imidazol-2-yl)-3-(trifluoromethyl)benzamide] | 0.037 | > 10 | 0.28 | 0.002 | 0.039 |
| C=CC(=O)NCCCn1c(NC(=O)c2cccc(C(F)(F)F)c2)nc2cc(C)ccc21 [Example 8-4, N-{5-methyl-1-[3-(prop-2-enamido)propyl]-1H-1,3-benzodiazol-2-yl}-3-(trifluoromethyl)benzamide] | 0.83 | > 10 | > 10 | 0.046 | 0.62 |
| C=CC(=O)Nc1cccc(-n2c(NC(=O)c3ccc4ccccc4c3)nc3cc(C)ccc32)c1 [Example 2-8, N-{5-methyl-1-[3-(prop-2-enamido)phenyl]-1H-1,3-benzodiazol-2-yl}naphthalene-2-carboxamide] | 0.38 | > 10 | 0.64 | 0.013 | 0.18 |
| C=CC(=O)Nc1cccc(-n2c(NC(=O)c3cccc(C)c3)nc3cc(C)ccc32)c1 [Example 2-5, 3-methyl-N-{5-methyl-1-[3-(prop-2-enamido)phenyl]-1H-1,3-benzodiazol-2-yl}benzamide] | 0.17 | > 10 | 1.3 | 0.012 | 0.14 |
| C=CC(=O)Nc1cccc(-n2c(NC(=O)c3cccc(C(F)(F)F)c3)nc3cccc(C)c32)c1 [Example 2-13, N-{7-methyl-1-[3-(prop-2-enamido)phenyl]-1H-1,3-benzodiazol-2-yl}-3-(trifluoromethyl)benzamide] | 0.079 | > 10 | 0.31 | 0.004 | 0.057 |
| C=CC(=O)Nc1cccc(-n2c(NC(=O)c3cccc(C(F)(F)F)c3)nc3cc(CN4CCCC4)ccc32)c1 [Example 5-2, N-[1-[3-(prop-2-enamido)phenyl]-5-(pyrrolidin-1-ylmethyl)-1H-1,3-benzodiazol-2-yl]-3-(trifluoromethyl)benzamide] | 0.013 | > 10 | 0.18 | 0.007 | 0.039 |
| C=CC(=O)Nc1cccc(-n2c(NC(=O)c3ccc(F)c(F)c3)nc3cc(C)ccc32)c1 [Example 2-2, 3,4-difluoro-N-{5-methyl-1-[3-(prop-2-enamido)phenyl]-1H-1,3-benzodiazol-2-yl}benzamide] | 0.08 | > 10 | 0.2 | 0.002 | 0.054 |
